Results as given in patent US20230158098A1, “COMPOSITION FOR PROMOTING ENERGY EXPENDITURE” (MORINAGA MILK INDUSTRY CO., LTD., priority 2017, published 2023).

System: Male C57BL/6J mice
Assay: Energy expenditure by indirect calorimetry, administration at rest 2
Type: in vivo
Conditions: mice fasted 1 hour, oral, hydrolysates 1.0 mg/g body weight, MKP peptide 0.4 μg/g body weight, randomized crossover, FIG. 3
Procedure: Male C57BL/6J mice as laboratory animals were divided into the following four groups: rest group, casein hydrolysate administration group, MKP peptide administration group, and whey protein hydrolysate administration group. The mice were fasted for 1 hour. Subsequently, a casein hydrolysate and a whey protein hydrolysate each in an amount of 1.0 mg/g body weight and a MKP peptide in an amount of 0.4 μg/g body weight were orally administered, and energy expenditure was measured. The number of mice used in the experiment was n=12 in each group, and a randomized crossover test was employed.
Incidentally, as the casein hydrolysate and the whey protein hydrolysate, those prepared in <1>, (1) to (2), above were used, and, as the MKP peptide, a synthetic peptide was purchased from Peptide Institute and used. Energy expenditure for 60 minutes after administration was determined.
As compared with the rest group, in all the casein hydrolysate administration group, MKP peptide administration group, and whey protein hydrolysate administration group, the level of energy expenditure was higher.

H-Met-Lys-Pro-OH [MKP peptide]
average energy expenditure for 60 minutes after administration compared with the rest group: higher
